Reference: US6972319B1, “Pituitary adenylate cyclase activating peptide (PACAP)receptor 3 (R3) agonists and their pharmacological methods of use” (priority 1999, dated 2005)
No end group written: not given here.

Tests used:
PACAP-R2 = target: T1, PACAP-R2 (Homo sapiens, UniProt P32241); experiment: Cyclic AMP SPA on CHO cells transfected with PACAP-R2; assay type: cell-based; conditions: cAMP SPA, concentration at which 50% of maximum PACAP27 activity is achieved, NA = no detectable activities, read-out: R2 EC50
T1 construct: expressed in transfected cells; host or cells: CHO cells
T1 sequence (P32241 31-457): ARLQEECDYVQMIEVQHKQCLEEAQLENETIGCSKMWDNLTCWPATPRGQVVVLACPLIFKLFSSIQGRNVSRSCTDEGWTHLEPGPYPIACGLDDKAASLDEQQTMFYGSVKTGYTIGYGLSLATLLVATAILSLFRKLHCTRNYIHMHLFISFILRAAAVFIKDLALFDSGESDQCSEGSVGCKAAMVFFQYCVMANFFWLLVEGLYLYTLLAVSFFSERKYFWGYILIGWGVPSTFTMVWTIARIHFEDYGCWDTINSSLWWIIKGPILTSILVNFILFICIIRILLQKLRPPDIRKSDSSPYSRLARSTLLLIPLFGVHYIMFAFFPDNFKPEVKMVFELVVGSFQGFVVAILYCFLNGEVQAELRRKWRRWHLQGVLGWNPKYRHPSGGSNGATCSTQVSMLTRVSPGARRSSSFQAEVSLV
Outline: (§1)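 Potency reflects cyclic AMP accumulation, determined by SPA, after a 15 min, 37 C peptide exposure of CHO cells carrying the human receptor. Values are expressed relative to the maximal PACAP27 effect, with EC50 taken at its 50% level.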

PACAP-R3 [1] = target: T2, PACAP-R3 (Homo sapiens, UniProt P41587); experiment: Cyclic AMP SPA on CHO cells expressing PACAP R3; assay type: cell-based; set-up: expressed in transfected cells; host or cells: CHO cells (Geneticin selection); conditions: for EC50: cAMP SPA, CHO cells transfected with PACAP-R3, concentration at which 50% of maximum PACAP27 activity is achieved, NA = no detectable activities, read-out: R3 EC50; for R3 Selectivity: ratio of EC50 at R2 versus EC50 at R3
T2 sequence (P41587 24-438): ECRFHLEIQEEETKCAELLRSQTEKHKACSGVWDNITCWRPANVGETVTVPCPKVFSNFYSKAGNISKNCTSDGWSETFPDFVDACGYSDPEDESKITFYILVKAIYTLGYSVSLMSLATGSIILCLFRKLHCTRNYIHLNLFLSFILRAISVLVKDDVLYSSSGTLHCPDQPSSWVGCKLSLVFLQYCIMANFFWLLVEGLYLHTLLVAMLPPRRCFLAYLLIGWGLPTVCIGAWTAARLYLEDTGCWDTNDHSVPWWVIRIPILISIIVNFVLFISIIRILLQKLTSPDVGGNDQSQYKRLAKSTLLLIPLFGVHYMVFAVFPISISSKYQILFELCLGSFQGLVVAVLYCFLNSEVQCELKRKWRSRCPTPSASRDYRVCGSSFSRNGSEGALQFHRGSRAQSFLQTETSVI
Outline: as §1

PACAP-R3 [2] = target: T3, PACAP-R3 (human, UniProt P41587 24-438); experiment: cell-based or functional assay
T3 sequence (looked up): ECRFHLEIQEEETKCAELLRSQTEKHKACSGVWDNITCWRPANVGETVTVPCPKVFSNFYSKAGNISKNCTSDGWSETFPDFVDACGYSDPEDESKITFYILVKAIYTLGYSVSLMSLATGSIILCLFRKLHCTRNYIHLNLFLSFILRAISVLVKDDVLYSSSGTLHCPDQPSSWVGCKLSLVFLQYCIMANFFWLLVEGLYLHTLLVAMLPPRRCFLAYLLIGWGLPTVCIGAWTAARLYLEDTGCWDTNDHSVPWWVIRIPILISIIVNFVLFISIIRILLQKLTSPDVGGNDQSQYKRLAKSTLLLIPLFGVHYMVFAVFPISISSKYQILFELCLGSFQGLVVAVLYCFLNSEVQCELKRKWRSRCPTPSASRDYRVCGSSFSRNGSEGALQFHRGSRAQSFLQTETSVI

Molecule | EC50 (PACAP-R2) | EC50 (PACAP-R3 [1]) | R3 Selectivity (PACAP-R3 [1]) | R3 EC50, nM (cAMP SPA) (PACAP-R3 [2]) | R3 Selectivity (PACAP-R3 [2])
HSDAVFTDNYTRLRKQMAVKKYLNSILK [Peptide R3P43] | 0.8 nM | 0.08 nM | 10 | – | –
HSDAVFTDNYTRLRKQMAWKKYLNSIKNKR [Peptide R3P114] | 20 nM | 2 nM | 10 | – | –
HSDAVFTDNYTRLRKQMAYKKYLNSIKNKR [Peptide R3P115] | 300 nM | 6 nM | 50 | – | –
HSDAVFTDNYTRLRKQVAAKKYLNSIKK [Peptide R3P62] | 180 nM | 1.8 nM | 100 | – | –
HSDAVFTDNYTRLRKQVAAKKYLNSIKKKR [Peptide R3P78] | 250 nM | 1.1 nM | 230 | – | –
HSDAVFTDNYTRLRKQVAAKKYLNSIKNKRY [Peptide R3P68] | 130 nM | 0.5 nM | 260 | – | –
HSDAVFTDNYTRLRKQVAAKKYLNSIKNKRY [Peptide R3P79] | 100 nM | – | 200 | – | –
HSDAVFTDNYTRLRKQVAAKKYLQSIKNK [Peptide R3P86] | 90 nM | 0.8 nM | 110 | – | –
HSDAVFTDNYTRLRKQVAAKKYLQSILKK [Peptide R3P85] | 5 nM | 0.18 nM | 30 | – | –
HSDAVFTDNYTRLRKQVAAKKYLQSILKKR [Peptide R3P84] | 2.5 nM | 0.06 nM | 40 | – | –
HSDAVFTDNYTRLRKQVAAKKYLQSILNK [Peptide R3P94] | 9 nM | 0.09 nM | 100 | – | –
HSDAVFTDNYTRLRKQVAAKKYLQSILNKR [Peptide R3P93] | 6 nM | 0.14 nM | 40 | – | –
HSDAVFTDNYTRLRKQVAAKKYLQSILNKRY [Peptide R3P92] | 2 nM | 0.02 nM | 100 | – | –
HSDAVFTDNYTRLRKQVAVKKYLQSILKK [Peptide R3P89] | 0.9 nM | 0.06 nM | 15 | – | –
HSDAVFTDNYTRLRKQVAVKKYLQSILKKR [Peptide R3P88] | 0.89 nM | 0.08 nM | 12 | – | –
HSDAVFTDNYTRLRKQVAVKKYLQSILKKRY [Peptide R3P87] | 0.6 nM | 0.2 nM | 3 | – | –
HSDAVFTDQYTRLRKQLAAHKYLNTIKNKRY [Peptide R3P75] | > 150 nM | 0.3 nM | >500 | – | –
HSDAVFTDQYTRLRKQMAAKKYLNSIKNKRY [Peptide R3P71] | 56 nM | 0.09 nM | 660 | – | –
HSDAVFTENYTKLRKQLAAKKYLNDLKK [Peptide R3P5] | 200 nM | 7 nM | 30 | – | –
HSDAVFTENYTRLRKQMAVKKYLNSLKK-NH2 [Peptide R3P7] | 2 nM | 4 nM | 0.5 | – | –
HSDGIFTDKYSRYRKQMAVKKYLAAVL-NH2 [PAC9] | 0.9 nM | 0.7 nM | 1 | – | –
HSDGIFTDSYKRYRKQMAVKKYLAAVL-NH2 [PAC11] | 10 nM | 140 nM | 0.1 | – | –
HSDGIFTDSYSRKRKQMAVKKYLAAVL-NH2 [PAC13] | 3 nM | 0.5 nM | 6 | – | –
HSDGIFTDSYSRYEKQMAVKKYLAAVL-NH2 [PAC14] | 110 nM | 1.6 nM | 70 | – | –
HSDGIFTDSYSRYREQMAVKKYLAAVL-NH2 [PAC15] | 2.4 nM | 0.2 nM | 12 | – | –
HSDGIFTDSYSRYRKKMAVKKYLAAVL-NH2 [PAC16] | 0.2 nM | 0.2 nM | 1 | – | –

Molecule | EC50 (PACAP-R2) | EC50 (PACAP-R3 [1]) | R3 Selectivity (PACAP-R3 [1]) | R3 EC50, nM (cAMP SPA) (PACAP-R3 [2]) | R3 Selectivity (PACAP-R3 [2])
HSDGIFTDSYSRYRKQKAVKKYLAAVL-NH2 [PAC17] | 0.25 nM | 0.15 nM | 1.6 | – | –
HSDGIFTDSYSRYRKQMAVEKYLAAVL-NH2 [PAC20] | 20 nM | 0.7 nM | 30 | – | –
HSDGIFTDSYSRYRKQMAVKEYLAAVL-NH2 [PAC21] | 2.5 nM | 0.24 nM | 10 | – | –
HSDGIFTDSYSRYRKQMAVKKKLAAVL-NH2 [PAC22] | 2 nM | 15 nM | 0.1 | – | –
HSDGIFTDSYSRYRKQMAVKKYLAAKL-NH2 [PAC26] | 0.25 nM | 0.3 nM | 1 | – | –
HSDGIFTDSYSRYRKQMAVKKYLAAVK-NH2 [PAC27] | 1.5 nM | 1.1 nM | 1.4 | – | –
HSDGIFTDSYSRYRKQMAVKKYLAAVKKYLAAVRHG-NH2 [Peptide R3P17] | 9 nM | 4 nM | 2 | – | –
HSDGIFTDSYSRYRKQMAVKKYLAKVL-NH2 [PAC25] | 0.13 nM | 0.04 nM | 3 | – | –
HSDGIFTDSYSRYRKQMAVKKYLKAVL-NH2 [PAC24] | 0.3 nM | 0.2 nM | 1.5 | – | –
HSDGIFTDSYSRYRKQMAVKKYLSAVRHGQT-NH2 [Peptide R3P15] | 12 nM | 5 nM | 2 | – | –
HSDGIFTKSYSRYRKQMAVKKYLAAVL-NH2 [PAC8] | 43 nM | 47 nM | 1 | – | –
HSDKIFTDSYSRYRKQMAVKKYLAAVL-NH2 [PAC4] | 45 nM | 7 nM | 6 | – | –
HSDAVFTDNYTRLRKQMAAKKYLNSIKNKT [R3P168] | – | – | – | 0.2 nM | 300 ratio
HSDAVFTDDYTRLRKEVAAKKYLESIKDKRY [R3P173] | – | – | – | 200 nM | –
HKDGIFTDSYSRYRKQMAVKKYLAAVL-NH2 [PAC2] | – | – | – | 34 nM | –
HSDAVFTDNYTRLRKQMAAKKYLNSIKNKY [R3P171] | – | – | – | 0.4 nM | –
HSDAVFTDNYTRLRKQMAAKKYLNSIKNKP [R3P165] | – | – | – | 0.5 nM | 300 ratio
HSDGIFTDKYSRYRKQMAVKKYLAAVL-NH2 [PAC9] | – | – | – | 0.7 nM | 1 ratio
HSDKIFTDSYSRYRKQMAVKKYLAAVL-NH2 [PAC4] | – | – | – | 7 nM | 6 ratio
HSDGIFTKSYSRYRKQMAVKKYLAAVL-NH2 [PAC8] | – | – | – | 47 nM | 1 ratio
HSDGIFTDSKSRYRKQMAVKKYLAAVL-NH2 [PAC10] | – | – | – | 27 nM | 4 ratio
HSDAVFTDNYTRLRKQMAAKKYLNSIKNKS [R3P167] | – | – | – | 1 nM | –
HSDAVFTDNYTRLRKQVAAKKYLQSIKNKRYSWCEPGWCR [R3P172] | – | – | – | 2.6 nM | 29 ratio
ESDGIFTDSYSRYRKQMAVKKYLAAVL-NH2 [PAC1] | – | – | – | 10 nM | 97 ratio
HSDGIFTDSYKRYRKQMAVKKYLAAVL-NH2 [PAC11] | – | – | – | 140 nM | 0.1 ratio
HSDAVFTDNYTRLRKQMAAKKYLNSIKNKV [R3P169] | – | – | – | 0.2 nM | 300 ratio
